Data reported in EP4509511A1, “SUBSTITUTED SPIRO-ISOXAZOLINYL LACTAMS, SALTS THEREOF AND THEIR USE AS HERBICIDALLY ACTIVE SUBSTANCES” (Bayer Aktiengesellschaft, priority 2023, dated 2025).

Columns and labels:
VIOTR = test: Herbicidal post-emergence action - Part II; format: in vivo, Viola tricolor
Text: (§1) Seeds of mono- and dicotyledonous weed plants and crop plants were sown, in plastic or organic planting pots, in sandy loam, covered with soil and grown in a greenhouse under controlled growth conditions. 2 to 3 weeks after sowing, the test plants were sprayed in the single-leaf stage. The compounds according to the invention, formulated in form of wettable powders (WP) or as emulsifiable concentrates (EC), were sprayed onto the green plant parts as aqueous suspension or emulsion, with the addition of 0.5% of an additive, at an application rate of 600 1 of water/ha (converted). The test plants were placed in the greenhouse for ca. 3 weeks under optimum growth conditions, and then the effect of the preparations was assessed visually in comparison with untreated controls (herbicidal effect in percent (%): 100% effect = plants have died off, 0% effect = as control plants). Tables E1 to E10 below show the effects of selected compounds of the general formula (I) according to table 1 on various harmful plants and an application rate corresponding to 320 g/ha or below obtained by the experimental procedure mentioned above. Table E1a: post-emergence activity at 5g/ha against ABUTH in %

TRZAS = test: Post-emergence effects on crop plants; format: in vivo, Triticum aestivum; settings: crop plant
Text: as §1, with “F1” for “E1”, “F5” for “E10”, “crop” for “harmful”, “[…]:” for “E1a:”, “ZEAMX” for “ABUTH”

PHBPU = test: Herbicidal post-emergence action - Part II; format: in vivo, Pharbitis purpurea
Text: as §1

ABUTH [1] = test: Herbicidal post-emergence action - Part II; format: in vivo, Abutilon theophrasti
Text: as §1

VERPE [2] = test: Herbicidal post-emergence action - Part II; format: in vivo, Veronica persica
Text: as §1

ECHCG [3] = test: Herbicidal post-emergence action - Part II; format: in vivo, Echinochloa crus-galli; settings: 20 g/ha; Table E3a
Text: as §1

ZEAMX = test: Post-emergence effects on crop plants; format: in vivo, Zea mays; settings: crop plant
Text: as §1, with “F1” for “E1”, “F5” for “E10”, “crop” for “harmful”, “[…]:” for “E1a:”, “ZEAMX” for “ABUTH”

SETVI = test: Herbicidal post-emergence action - Part II; format: in vivo, Setaria viridis
Text: as §1

AMARE [4] = test: Herbicidal post-emergence action - Part II; format: in vivo, Amaranthus retroflexus
Text: as §1

MATIN [5] = test: Herbicidal post-emergence action - Part II; format: in vivo, Matricaria inodora
Text: as §1

POLCO = test: Herbicidal post-emergence action - Part II; format: in vivo, Polygonum convolvulus; settings: 20 g/ha; Table E6
Text: as §1

STEME [6] = test: Herbicidal post-emergence action - Part I; format: in vivo, Stellaria media; settings: one-leaf stage, rated visually after about 3 weeks vs untreated controls
Description: (§2) Seeds of mono- and dicotyledonous weed plants were placed in plastic pots in sandy loam soil (doubly sown with in each case one species of mono- or dicotyledonous weed plants per pot), covered with soil and cultivated in a greenhouse under controlled growth conditions. 2 to 3 weeks after sowing, the test plants were treated at the one-leaf stage. The compounds of the invention, formulated in the form of wettable powders (WP) or as emulsion concentrates (EC), were applied onto the green parts of the plants as aqueous suspension or emulsion with addition of 0.5% additive at a water application rate of 600 liters per hectare (converted). After the test plants had been kept in the greenhouse under optimum growth conditions for about 3 weeks, the activity of the preparations was rated visually in comparison to untreated controls. For example, 100% activity = the plants have died, 0% activity = like control plants. Tables B1 to B12, below, show the effects of selected compounds of the general formula (I) according to table 1 on various harmful plants and an application rate corresponding to 1280 g/ha or below obtained by the experimental procedure mentioned above. Table B1a: post-emergence activity at 1280g/ha against ABUTH in %

ABUTH [7] = test: Herbicidal post-emergence action - Part I; format: in vivo, Abutilon theophrasti; settings: 320 g/ha, one-leaf stage, rated visually after about 3 weeks vs untreated controls
Description: as §2

AMARE [8] = test: Herbicidal pre-emergence action - Part I; format: in vivo, Amaranthus retroflexus; settings: 1280 g/ha, visual grading after ca. 3 weeks vs untreated controls
Text: (§3) Seeds of mono- and dicotyledonous weed plants were sown in plastic pots (double sowings with one species of mono- and one species of dicotyledonous weed plants per pot), in sandy loam, and covered with soil. The compounds according to the invention, formulated in the form of wettable powders (WP) or as emulsifiable concentrates (EC), were applied to the surface of the covering soil as aqueous suspension or emulsion, with the addition of 0.5% of an additive, at an application rate of 600 1 of water per hectare (converted). Following treatment, the pots were placed in a greenhouse and kept under optimum growth conditions for the test plants. The visual grading of the damage to the test plants was carried out after ca. 3 weeks in comparison to untreated controls (herbicidaleffectinpercent(%):100%effect=plantshavediedoff,0%effect=ascontrolplants). [formula]
(§4) Tables A1 to A12, below, show the effects of selected compounds of the general formula (I) according to table 1 on various harmful plants and an application rate corresponding to 1280 g/ha or below obtained by the experimental procedure mentioned above. Table A1: pre-emergence activity at 1280g/ha against ABUTH in %

VERPE [9] = test: Herbicidal post-emergence action - Part I; format: in vivo, Veronica persica; settings: 1280 g/ha, one-leaf stage, rated visually after about 3 weeks vs untreated controls
Description: as §2

MATIN [10] = test: Herbicidal post-emergence action - Part I; format: in vivo, Matricaria inodora; settings: one-leaf stage, rated visually after about 3 weeks vs untreated controls
Description: as §2

KCHSC = test: Herbicidal post-emergence action - Part I; format: in vivo, Kochia scoparia; settings: 1280 g/ha, one-leaf stage, rated visually after about 3 weeks vs untreated controls
Description: as §2

ECHCG [11] = test: Herbicidal pre-emergence action - Part I; format: in vivo, Echinochloa crus-galli; settings: 1280 g/ha, visual grading after ca. 3 weeks vs untreated controls
Text: as §3, §4

STEME [12] = test: Herbicidal pre-emergence action - Part I; format: in vivo, Stellaria media; settings: 1280 g/ha, visual grading after ca. 3 weeks vs untreated controls
Text: as §3, §4

AMARE [13] = test: Herbicidal post-emergence action - Part I; format: in vivo, Amaranthus retroflexus; settings: one-leaf stage, rated visually after about 3 weeks vs untreated controls
Description: as §2

Row | Structure (SMILES) | post-emergence activity against VIOTR (VIOTR; 5 g/ha, Table E9a) [%] | post-emergence activity against VIOTR (VIOTR; 20 g/ha, Table E9b) [%] | post-emergence activity against TRZAS (TRZAS; 5 g/ha, Table F2a) [%] | post-emergence activity against PHBPU (PHBPU; 5 g/ha, Table E5a) [%] | post-emergence activity against PHBPU (PHBPU; 20 g/ha, Table E5b) [%] | post-emergence activity against ABUTH (ABUTH [1]; 5 g/ha, Table E1a) [%] | post-emergence activity against ABUTH (ABUTH [1]; 20 g/ha, Table E1b) [%] | post-emergence activity against VERPE (VERPE [2]; 5 g/ha, Table E8a) [%] | post-emergence activity against VERPE (VERPE [2]; 20 g/ha, Table E8b) [%] | post-emergence activity against ECHCG (ECHCG [3]) [%] | post-emergence activity against ZEAMX (ZEAMX; 5 g/ha, Table F1a) [%] | post-emergence activity against ZEAMX (ZEAMX; 20 g/ha, Table F1b) [%] | post-emergence activity against SETVI (SETVI; 20 g/ha, Table E7b) [%] | post-emergence activity against AMARE (AMARE [4]; 5 g/ha, Table E2a) [%] | post-emergence activity against AMARE (AMARE [4]; 20 g/ha, Table E2b) [%] | post-emergence activity against MATIN (MATIN [5]; 20 g/ha, Table E4b) [%] | post-emergence activity against TRZAS (TRZAS; 20 g/ha, Table F2b) [%] | further results
1 | Cn1c(C(F)(F)F)cc(=O)n(-c2cc(C3=NOC4(CCCN(Cc5c(F)cccc5F)C4=O)C3)c(Cl)cc2F)c1=O (racemic) [Compound I-6] | 100 | 100 | 20 | 100 | 100 | 100 | 100 | 80 | 80 | 80 | 10 | 10 | 100 | 100 | 100 |  |  | 
2 | Cn1c(C(F)(F)F)cc(=O)n(-c2cc(C3=NOC4(CCN(Cc5ccccc5F)C4=O)C3)c(Cl)cc2F)c1=O (racemic) [Compound I-28] | 100 | 100 | 20 | 100 | 100 | 80 | 100 | 100 | 100 | 100 | 20 | 20 | 100 | 100 | 100 | 100 |  | post-emergence activity against SETVI (SETVI; 5 g/ha, Table E7a): 80%
3 | Cn1c(C(F)(F)F)cc(=O)n(-c2cc(C3=NOC4(CCN(Cc5ccccc5Cl)C4=O)C3)c(Cl)cc2F)c1=O (racemic) [Compound I-30] | 100 | 100 | 20 | 100 | 100 | 100 | 100 | 90 | 100 | 100 |  | 20 | 100 | 100 | 100 | 100 | 20 | 
4 | Cn1c(C(F)(F)F)cc(=O)n(-c2cc(C3=NOC4(CCN(Cc5cccc(F)c5F)C4=O)C3)c(Cl)cc2F)c1=O (racemic) [Compound I-33] | 100 | 100 | 20 | 100 | 100 | 100 | 100 | 100 | 100 | 100 |  |  | 100 | 100 | 100 | 100 | 20 | post-emergence activity against MATIN (MATIN [5]; 5 g/ha, Table E4a): 90%; post-emergence activity against POLCO (POLCO): 100%
5 | COc1ncccc1C1=NOC2(CCN(Cc3cccc(F)c3F)C2=O)C1 (racemic) [Compound I-42] |  |  |  |  |  |  |  |  |  |  |  |  |  |  |  |  |  | post-emergence activity at 320g/ha against STEME in % (STEME [6]; 320 g/ha): 100%; post-emergence activity at 1280g/ha against STEME in % (STEME [6]; 1280 g/ha): 100%; post-emergence activity at 320g/ha against ABUTH in % (ABUTH [7]): 90%; pre-emergence activity at 1280g/ha against AMARE in % (AMARE [8]): 90%; post-emergence activity at 1280g/ha against VERPE in % (VERPE [9]): 90%; post-emergence activity at 320g/ha against MATIN in % (MATIN [10]; 320 g/ha): 100%; post-emergence activity at 1280g/ha against MATIN in % (MATIN [10]; 1280 g/ha): 100%; post-emergence activity at 1280g/ha against KCHSC in % (KCHSC): 90%; pre-emergence activity at 1280g/ha against ECHCG in % (ECHCG [11]): 90%; pre-emergence activity at 1280g/ha against STEME in % (STEME [12]): 90%; post-emergence activity at 320g/ha against AMARE in % (AMARE [13]; 320 g/ha): 90%; post-emergence activity at 1280g/ha against AMARE in % (AMARE [13]; 1280 g/ha): 90%
